These are literature values, as cited in patent US11020390B2, “Bioequivalent pharmaceutical composition of vortioxetine hydrobromide” (UNICHEM LABORATORIES LTD, priority 2017, dated 2021).

Molecules are shown by their SMILES.

Consider `Br.Cc1ccc(Sc2ccccc2N2CCNCC2)c(C)c1` [vortioxetine hydrobromide, 1-[2-(2,4-Dimethyl-phenylsulfanyl)-phenyl]-piperazine, hydrobromide], for which the solubility in water result was “relatively poor”.
